According to the supplement of paper PMC4862054:

Columns and labels:
Details in all cases: incubation time: 72 h
BT-474 = test: normalised viability (% of control), CellTiter-Blue; higher = more viable cells (about 100 = DMSO control)
Outline: (§1)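 384-well plates were pre-loaded with compound in 5 µl medium before 20 µl of breast cancer cell suspension was seeded. Following 72 h incubation, 2.5 µl CellTiter-Blue reagent was added for 2 h at 37 °C. Fluorescence was read at 560/590 nm and plates were normalised to vehicle (100) and a positive kill control (0), checked by Z'-factor. Normalised viability is reported at a single listed concentration of the series.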

BT-549 [1] = test: as above
Outline: as §1

CAL-120 = test: as above
Outline: as §1

CAL-148 [2] = test: as above
Outline: as §1

CAL-51 [3] = test: as above
Outline: as §1

CAL-85-1 = test: as above
Outline: as §1

DU-4475 [4] = test: as above
Outline: as §1

HCC1143 [5] = test: as above
Outline: as §1

HCC1599 [6] = test: as above
Outline: as §1

HCC1937 [7] = test: as above
Outline: as §1

HDQ-P1 = test: as above
Outline: as §1

Hs578T [8] = test: as above
Outline: as §1

MDA-MB-231 [9] = test: as above
Outline: as §1

MDA-MB-436 = test: as above
Outline: as §1

MDA-MB-453 = test: as above
Outline: as §1

MDA-MB-468 [10] = test: as above
Outline: as §1

MFM-223 = test: as above
Outline: as §1

SK-BR-3 = test: as above
Outline: as §1

BT-549 [11] = test: as above; remark: listed apart in the source
Outline: as §1

CAL-148 [12] = test: as above; remark: listed apart in the source
Outline: as §1

CAL-51 [13] = test: as above; remark: listed apart in the source
Outline: as §1

DU-4475 [14] = test: as above; remark: listed apart in the source
Outline: as §1

HCC1143 [15] = test: as above; remark: listed apart in the source
Outline: as §1

HCC1599 [16] = test: as above; remark: listed apart in the source
Outline: as §1

Hs578T [17] = test: as above; remark: listed apart in the source
Outline: as §1

MDA-MB-231 [18] = test: as above; remark: listed apart in the source
Outline: as §1

MDA-MB-468 [19] = test: as above; remark: listed apart in the source
Outline: as §1

HCC1937 [20] = test: drug sensitivity score (DSS), CellTox Green (DSS (AUC-based score)); higher = stronger drug effect (viability inhibition or cytotoxicity); extreme values may be limits of the assay
Outline: (§2)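 Breast cancer cell lines, seeded as 20 µl suspension, were incubated 72 h with compound in 384-well plates at 5 concentrations in 10-fold steps over a 10,000-fold range set for each compound. Fluorescence from CellTox Green was read at 485/520 nm before CellTiter-Glo luminescence, which was read after 10 min at room temperature. Every plate was normalised to 0.1 % DMSO and a positive kill control, and the drug sensitivity score was taken from the area under the fitted dose-response curve.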

Hs578T [21] = test: as above
Outline: as §2

With `O=C(c1ccc(OCCN2CCCCC2)cc1)c1c(-c2ccc(O)cc2)sc2cc(O)ccc12` [Raloxifene] the normalised viability (BT-474; 100 nM) was 107%, the normalised viability (BT-549 [1]; 100 nM) was 87.2% and the normalised viability (CAL-120; 100 nM) was 102%. The normalised viability (CAL-148 [2]; 10 nM) was 100%, the normalised viability (CAL-51 [3]; 10 nM) was 99.6% and the normalised viability (CAL-85-1; 10 nM) was 101%. The normalised viability (DU-4475 [4]; 10 nM) was 105%, the normalised viability (HCC1143 [5]; 100 nM) was 109% and the normalised viability (HCC1599 [6]; 100 nM) was 104%. It also gave a normalised viability (HCC1937 [7]; 100 nM) of 110%, a normalised viability (HDQ-P1; 10 nM) of 90.2% and a normalised viability (Hs578T [8]; 100 nM) of 104%. It also gave a normalised viability (MDA-MB-231 [9]; 100 nM) of 89.3%, a normalised viability (MDA-MB-436; 100 nM) of 107% and a normalised viability (MDA-MB-453; 10 nM) of 107%. The normalised viability (MDA-MB-468 [10]; 100 nM) was 105%, the normalised viability (MFM-223; 100 nM) was 84.3% and the normalised viability (SK-BR-3; 100 nM) was 115%. The normalised viability (BT-549 [11]; 10 nM) was 77.5%, the normalised viability (BT-549 [11]; 1000 nM) was 101% and the normalised viability (BT-549 [11]; 10000 nM) was 56.8%. For the same compound, the normalised viability (CAL-148 [12]; 3 nM) was 95.2%, the normalised viability (CAL-148 [12]; 30 nM) was 98.6% and the normalised viability (CAL-148 [12]; 100 nM) was 93.8%. For the same compound, the normalised viability (CAL-51 [13]; 3 nM) was 102%, the normalised viability (CAL-51 [13]; 30 nM) was 99.7% and the normalised viability (CAL-51 [13]; 100 nM) was 93.7%. It also gave a normalised viability (DU-4475 [14]; 3 nM) of 105%, a normalised viability (DU-4475 [14]; 30 nM) of 108% and a normalised viability (DU-4475 [14]; 100 nM) of 104%. For the same compound, the normalised viability (HCC1143 [15]; 10 nM) was 114%, the normalised viability (HCC1143 [15]; 1000 nM) was 98.7% and the normalised viability (HCC1143 [15]; 10000 nM) was 96.8%. For the same compound, the normalised viability (HCC1599 [16]; 10 nM) was 95.7%, the normalised viability (HCC1599 [16]; 1000 nM) was 103% and the normalised viability (HCC1599 [16]; 10000 nM) was 102%. For the same compound, the normalised viability (Hs578T [17]; 10 nM) was 112%, the normalised viability (Hs578T [17]; 1000 nM) was 102% and the normalised viability (Hs578T [17]; 10000 nM) was 92.8%. For the same compound, the normalised viability (MDA-MB-231 [18]; 10 nM) was 85.3%, the normalised viability (MDA-MB-231 [18]; 1000 nM) was 89.3% and the normalised viability (MDA-MB-231 [18]; 10000 nM) was 102%. It also gave a normalised viability (MDA-MB-468 [19]; 10 nM) of 98.6%, a normalised viability (MDA-MB-468 [19]; 1000 nM) of 106% and a normalised viability (MDA-MB-468 [19]; 10000 nM) of 78.2%. It also gave a drug sensitivity score (HCC1937 [20]) of 0 and a drug sensitivity score (Hs578T [21]) of 2.23.
Compound `CCS(=O)(=O)c1cccc(-c2cc(C(=O)NC3CCN(C)CC3)c(C)c3[nH]c4ncc(C)cc4c23)c1` [TAK-901] has a normalised viability (BT-474; 10 nM) of 113%, a normalised viability (BT-549 [1]; 10 nM) of 114% and a normalised viability (CAL-120; 10 nM) of 86.8%. The normalised viability (CAL-148 [2]; 1 nM) was 113%, the normalised viability (CAL-51 [3]; 1 nM) was 91.7% and the normalised viability (CAL-85-1; 1 nM) was 98%. It also gave a normalised viability (DU-4475 [4]; 1 nM) of 97%, a normalised viability (HCC1143 [5]; 10 nM) of 87.6% and a normalised viability (HCC1599 [6]; 10 nM) of 103%. The normalised viability (HCC1937 [7]; 10 nM) was 120%, the normalised viability (HDQ-P1; 1 nM) was 114% and the normalised viability (Hs578T [8]; 10 nM) was 131%. For the same compound, the normalised viability (MDA-MB-231 [9]; 10 nM) was 103%, the normalised viability (MDA-MB-436; 10 nM) was 101% and the normalised viability (MDA-MB-453; 1 nM) was 99.1%. It also gave a normalised viability (MDA-MB-468 [10]; 10 nM) of 105%, a normalised viability (MFM-223; 10 nM) of 81.8% and a normalised viability (SK-BR-3; 10 nM) of 97.3%. The normalised viability (BT-549 [11]; 1 nM) was 94.6%, the normalised viability (BT-549 [11]; 100 nM) was 71.2% and the normalised viability (BT-549 [11]; 1000 nM) was 20.1%. It also gave a normalised viability (CAL-148 [12]; 0.3 nM) of 90.1%, a normalised viability (CAL-148 [12]; 3 nM) of 95.3% and a normalised viability (CAL-148 [12]; 10 nM) of 101%. It also gave a normalised viability (CAL-51 [13]; 0.3 nM) of 98%, a normalised viability (CAL-51 [13]; 3 nM) of 92.8% and a normalised viability (CAL-51 [13]; 10 nM) of 92.1%. For the same compound, the normalised viability (DU-4475 [14]; 0.3 nM) was 94.7%, the normalised viability (DU-4475 [14]; 3 nM) was 88.1% and the normalised viability (DU-4475 [14]; 10 nM) was 101%. It also gave a normalised viability (HCC1143 [15]; 1 nM) of 87.3%, a normalised viability (HCC1143 [15]; 100 nM) of 64.2% and a normalised viability (HCC1143 [15]; 1000 nM) of 27.1%. The normalised viability (HCC1599 [16]; 1 nM) was 93.6%, the normalised viability (HCC1599 [16]; 100 nM) was 83% and the normalised viability (HCC1599 [16]; 1000 nM) was 61.4%. For the same compound, the normalised viability (Hs578T [17]; 1 nM) was 124%, the normalised viability (Hs578T [17]; 100 nM) was 78% and the normalised viability (Hs578T [17]; 1000 nM) was 40.5%. For the same compound, the normalised viability (MDA-MB-231 [18]; 1 nM) was 99.4%, the normalised viability (MDA-MB-231 [18]; 100 nM) was 64.9% and the normalised viability (MDA-MB-231 [18]; 1000 nM) was 20.6%. It also gave a normalised viability (MDA-MB-468 [19]; 1 nM) of 112%, a normalised viability (MDA-MB-468 [19]; 100 nM) of 33.1% and a normalised viability (MDA-MB-468 [19]; 1000 nM) of 63.6%. The drug sensitivity score (HCC1937 [20]) was 0 and the drug sensitivity score (Hs578T [21]) was 0.
For `CCCC(CCC)C(=O)O` [Valproic acid], the normalised viability (BT-474; 100 nM) was 113%, the normalised viability (BT-549 [1]; 100 nM) was 92% and the normalised viability (CAL-120; 100 nM) was 110%. It also gave a normalised viability (CAL-148 [2]; 10 nM) of 106%, a normalised viability (CAL-51 [3]; 10 nM) of 97.8% and a normalised viability (CAL-85-1; 10 nM) of 95.7%. The normalised viability (DU-4475 [4]; 10 nM) was 93.7%, the normalised viability (HCC1143 [5]; 100 nM) was 94.9% and the normalised viability (HCC1599 [6]; 100 nM) was 102%. For the same compound, the normalised viability (HCC1937 [7]; 100 nM) was 98.8%, the normalised viability (HDQ-P1; 10 nM) was 139% and the normalised viability (Hs578T [8]; 100 nM) was 111%. The normalised viability (MDA-MB-231 [9]; 100 nM) was 110%, the normalised viability (MDA-MB-436; 100 nM) was 95.4% and the normalised viability (MDA-MB-453; 10 nM) was 94.4%. The normalised viability (MDA-MB-468 [10]; 100 nM) was 115%, the normalised viability (MFM-223; 100 nM) was 94.9% and the normalised viability (SK-BR-3; 100 nM) was 95%. It also gave a normalised viability (BT-549 [11]; 10 nM) of 78.7%, a normalised viability (BT-549 [11]; 1000 nM) of 93.1% and a normalised viability (BT-549 [11]; 10000 nM) of 86.2%. It also gave a normalised viability (CAL-148 [12]; 3 nM) of 99.9%, a normalised viability (CAL-148 [12]; 30 nM) of 97.9% and a normalised viability (CAL-148 [12]; 100 nM) of 109%. The normalised viability (CAL-51 [13]; 3 nM) was 104%, the normalised viability (CAL-51 [13]; 30 nM) was 95.1% and the normalised viability (CAL-51 [13]; 100 nM) was 96.5%. It also gave a normalised viability (DU-4475 [14]; 3 nM) of 88.6%, a normalised viability (DU-4475 [14]; 30 nM) of 81.7% and a normalised viability (DU-4475 [14]; 100 nM) of 76.3%. The normalised viability (HCC1143 [15]; 10 nM) was 110%, the normalised viability (HCC1143 [15]; 1000 nM) was 104% and the normalised viability (HCC1143 [15]; 10000 nM) was 94.4%. The normalised viability (HCC1599 [16]; 10 nM) was 97.4%, the normalised viability (HCC1599 [16]; 1000 nM) was 90.7% and the normalised viability (HCC1599 [16]; 10000 nM) was 82%. For the same compound, the normalised viability (Hs578T [17]; 10 nM) was 110%, the normalised viability (Hs578T [17]; 1000 nM) was 140% and the normalised viability (Hs578T [17]; 10000 nM) was 127%. The normalised viability (MDA-MB-231 [18]; 10 nM) was 109%, the normalised viability (MDA-MB-231 [18]; 1000 nM) was 101% and the normalised viability (MDA-MB-231 [18]; 10000 nM) was 116%. It also gave a normalised viability (MDA-MB-468 [19]; 10 nM) of 105%, a normalised viability (MDA-MB-468 [19]; 1000 nM) of 117% and a normalised viability (MDA-MB-468 [19]; 10000 nM) of 121%. For the same compound, the drug sensitivity score (HCC1937 [20]) was 0 and the drug sensitivity score (Hs578T [21]) was 0.
